Consider 3 molecules from patent US4738929A, “Purified culture of streptomyces galanosa” (Warner-Lambert Company, priority 1986, dated 1988).

The test system of one assay is Mucor paraciticus. The assay can be described thus: Microtiter dilution MIC, Mucor paraciticus. Type of assay: cell-based. The following applies: yeasts or fungi, 28° C., 36-48 hours, read-out: Minimal Inhibitory Concentration. On the procedure: (§1) The compounds of the present invention and their pharmaceutically acceptable salts are useful as antimicrobial agents. The antimicrobial activity of the representative examples of compounds in accordance with the present invention against five species of gram-negative bacteria, seven species of gram-positive bacteria, four species of yeast, and two species of fungi were determined using the microtiter dilution technique. This method is described by T. B. Conrath, "Handbook of Microtiter Procedures," Dynatech Corp., Cambridge, Mass., USA (1972); and T. L. Gavan et al, "Microdilution Test Procedures," in Manual of Clinical Microbiology, E. H. Lennette, Ed., American Soc. for Microbiol., Washington, D.C., U.S.A. (1980).
(§2) Each agent is suspended in a nonaqueous solvent for several minutes to sterilize the compound or, if the compound is completely soluble in water, the aqueous solution is sterilized by passage through a 0.2-0.45 micrometer membrane filter.
(§3) Each well of a sterile 96-well microdilution tray is filled under aseptic conditions with 0.1 ml of Mueller-Hinton broth (for antibacterial tests), or yeast extract-peptone-dextrose or buffered supplemented yeast nitrogen base (for tests with yeasts or fungi).
(§4) […] of the test compound solution is added to each of the eight wells in the first row of the tray. A microdilutor apparatus is used to simultaneously mix the contents of these wells and to transfer aliquots to each succeeding row of cells to obtain a range of serially diluted solutions. The last row of wells is untreated and serves as a control.
(§5) Each well containing broth and test compound is inoculated with about ten microliters of inoculum of the test microorganism. One well in the last row of wells (which is free of test compound) is not inoculated and is used as a sterility control The trays are sealed and incubated at 37° C. for 16-24 hours (for bacteria) or at 28° C. for 36-48 hours (yeasts or fungi). During incubation, the inoculated medium is shaken at 100-140 rpm to increase contact between the microorganism cells and test compounds.
(§6) After the incubation period, each plate is evaluated by determining the lowest concentration of test compound required to inhibit the growth of the microorganism and recorded as a minimal inhibitory concentration (MIC).

For assay [1], the system named is Schizosaccharomyces pombe. The assay can be described thus: Microtiter dilution MIC, Schizosaccharomyces pombe. The assay is classed as cell-based. The following applies: yeasts or fungi, 28° C., 36-48 hours, read-out: Minimal Inhibitory Concentration. On the procedure:
as §1, §2, §3, §4, §5, §6

In the next assay the test system is Staphylococcus aureus. The assay can be described thus: Microtiter dilution MIC, Staphylococcus aureus. Type of assay: cell-based. The following applies: Mueller-Hinton broth, 37° C., 16-24 hours, read-out: Minimal Inhibitory Concentration. On the procedure: as §1, §2, §3, §4, §5, §6
A further assay relates to Pseudomonas aeruginosa. The assay can be described thus: Microtiter dilution MIC, Pseudomonas aeruginosa. The assay is classed as cell-based. Conditions: Mueller-Hinton broth, 37° C., 16-24 hours, read-out: Minimal Inhibitory Concentration. On the procedure:
as §1, §2, §3, §4, §5, §6

Another assay relates to Branhamella catarrhalis. The assay can be described thus: Microtiter dilution MIC, Branhamella catarrhalis. The following applies: Moraxella catarrhalis; Mueller-Hinton broth, 37° C., 16-24 hours; read-out: Minimal Inhibitory Concentration. The assay is classed as cell-based. On the procedure: as §1, §2, §3, §4, §5, §6
The test system of a further assay is Salmonella typhimurium. Briefly: Microtiter dilution MIC, Salmonella typhimurium. Type of assay: cell-based. Conditions: Salmonella enterica, Mueller-Hinton broth, 37° C., 16-24 hours, read-out: Minimal Inhibitory Concentration. On the procedure:
as §1, §2, §3, §4, §5, §6

In the next assay the test system is P388 leukemia cell line. The assay can be described thus: In vivo antineoplastic activity against transplanted P388 leukemia in mice. The following applies: Days 1-9. On the procedure: The in vivo antineoplastic activity of representative compounds of the present invention against the transplanted P388 leukemia cell line in mice was determined in accordance with the protocol given in Geran et al, cited above. The mice were infected intraperitoneally on Day 0 and then administered the indicated doses of the test compounds on Days 1-9.

The subject of another assay is Saccharomyces cerevisiae. Briefly: Microtiter dilution MIC, Saccharomyces cerevisiae. Conditions: yeasts or fungi, 28° C., 36-48 hours, read-out: Minimal Inhibitory Concentration. Type of assay: cell-based. On the procedure:
as §1, §2, §3, §4, §5, §6

A further assay has as its system Torulopsis albida. Briefly: Microtiter dilution MIC, Torulopsis albida. The following applies: Naganishia albida; yeasts or fungi, 28° C., 36-48 hours; read-out: Minimal Inhibitory Concentration. Type of assay: cell-based. On the procedure: as §1, §2, §3, §4, §5, §6
Another assay has as its system Bacillus megaterium. Briefly: Microtiter dilution MIC, Bacillus megaterium. Conditions: Priestia megaterium; Mueller-Hinton broth, 37° C., 16-24 hours; read-out: Minimal Inhibitory Concentration. The assay is classed as cell-based. On the procedure:
as §1, §2, §3, §4, §5, §6

Assay [2] deals with Escherichia coli (PD-04863). The assay can be described thus: Microtiter dilution MIC, Escherichia coli (PD-04863). Type of assay: cell-based. The following applies: Mueller-Hinton broth, 37° C., 16-24 hours, read-out: Minimal Inhibitory Concentration. On the procedure: as §1, §2, §3, §4, §5, §6
Another assay concerns Alcaligenes viscolactis. The assay can be described thus: Microtiter dilution MIC, Alcaligenes viscolactis. Conditions: Mueller-Hinton broth, 37° C., 16-24 hours, read-out: Minimal Inhibitory Concentration. Type of assay: cell-based. On the procedure:
as §1, §2, §3, §4, §5, §6

For a further assay, the system named is Rhodotorula aurantiaca. The assay can be described thus: Microtiter dilution MIC, Rhodotorula aurantiaca. The assay is classed as cell-based. Conditions: Buckleyzyma aurantiaca; yeasts or fungi, 28° C., 36-48 hours; read-out: Minimal Inhibitory Concentration. On the procedure:
as §1, §2, §3, §4, §5, §6

For a further assay, the system named is Streptococcus faecalis. Briefly: Microtiter dilution MIC, Streptococcus faecalis. The assay is classed as cell-based. The following applies: Enterococcus faecalis; Mueller-Hinton broth, 37° C., 16-24 hours; read-out: Minimal Inhibitory Concentration. On the procedure: as §1, §2, §3, §4, §5, §6
In the next assay the test system is Micrococcus luteus. Briefly: Microtiter dilution MIC, Micrococcus luteus. Conditions: Mueller-Hinton broth, 37° C., 16-24 hours, read-out: Minimal Inhibitory Concentration. Type of assay: cell-based. On the procedure: as §1, §2, §3, §4, §5, §6
The next assay relates to Streptococcus pneumoniae. Briefly: Microtiter dilution MIC, Streptococcus pneumoniae. The assay is classed as cell-based. The following applies: Mueller-Hinton broth, 37° C., 16-24 hours, read-out: Minimal Inhibitory Concentration. On the procedure: as §1, §2, §3, §4, §5, §6
A further assay deals with Bacillus cereus. Briefly: Microtiter dilution MIC, Bacillus cereus. Type of assay: cell-based. The following applies: Mueller-Hinton broth, 37° C., 16-24 hours, read-out: Minimal Inhibitory Concentration. On the procedure:
as §1, §2, §3, §4, §5, §6

Assay [3] deals with L1210 murine leukemia cell line. Briefly: Cytotoxic activity against L1210 murine leukemia in vitro. The assay is classed as cell-based. Conditions: Mus musculus, 50% inhibition of growth, duplicate tests. On the procedure: The antineoplastic activities of representative compounds of the present invention against the L1210 murine leukemia cell line in vitro were determined using the methods detailed by R. I. Geran et al, "Protocols for Screening Chemical Agents and Natural Products Against Animal Tumors and Other Biological Systems," 3rd Edition, Cancer Chemotherapy Reports, Part 3, Vol. 3, pages 1-87 (1972) which is incorporated herein by reference.
The IC50 values are the concentration of compound required to produce 50% inhibition of growth of the cell line.

A further assay relates to Streptococcus pyogenes. The assay can be described thus: Microtiter dilution MIC, Streptococcus pyogenes. The following applies: Mueller-Hinton broth, 37° C., 16-24 hours, read-out: Minimal Inhibitory Concentration. Type of assay: cell-based. On the procedure:
as §1, §2, §3, §4, §5, §6

In the next assay the test system is Rhizopus japonicus. Briefly: Microtiter dilution MIC, Rhizopus japonicus. The following applies: yeasts or fungi, 28° C., 36-48 hours, read-out: Minimal Inhibitory Concentration. The assay is classed as cell-based. On the procedure:
as §1, §2, §3, §4, §5, §6

Values after ≈ are worked out from the molar mass of the structure shown.

A word on the IC50: it is the concentration that inhibits the measured activity by half. A high value points to weaker potency. In the case of `Cc1c(O)c(C=O)c2nc3c(O)ccc(C(=O)NCCN(C)C)c3nc2c1O` [Example 8, N-[2-(dimethylamino)ethyl]-6-formyl-4,7,9-trihydroxy-8-methyl-1-phenazinecarboxamide], the MIC is more than 1000 µg/mL in the assay with Mucor paraciticus; more than 1000 µg/mL in assay [1]; 1000 µg/mL (≈ 2600 µM) in the assay with Staphylococcus aureus; more than 1000 µg/mL with Pseudomonas aeruginosa; 4.1 µg/mL (≈ 10.7 µM) in the assay on Branhamella catarrhalis; 111 µg/mL (≈ 289 µM) with Salmonella typhimurium. The MIC is more than 1000 µg/mL with Saccharomyces cerevisiae; more than 1000 µg/mL in the assay on Torulopsis albida; 1000 µg/mL (≈ 2600 µM) in the assay on Bacillus megaterium; 1000 µg/mL (≈ 2600 µM) in assay [2]; 4.1 µg/mL (≈ 10.7 µM) with Alcaligenes viscolactis; more than 1000 µg/mL in the assay on Rhodotorula aurantiaca. In addition, the MIC in the assay on Streptococcus faecalis is more than 1000 µg/mL; in the assay with Micrococcus luteus it was 1000 µg/mL (≈ 2600 µM); in the assay on Streptococcus pneumoniae, 1000 µg/mL (≈ 2600 µM); in the assay with Bacillus cereus it was 37 µg/mL (≈ 96.3 µM); with Streptococcus pyogenes it was 1000 µg/mL (≈ 2600 µM); in the assay with Rhizopus japonicus, more than 1000 µg/mL. In addition, the “% T/C” value with P388 leukemia cell line (3.12 mg/kg/injection) is reported as 113%; in the assay with P388 leukemia cell line (6.25 mg/kg/injection), 129%; with P388 leukemia cell line (12.5 mg/kg/injection) it was 146%; in the assay on P388 leukemia cell line (25 mg/kg/injection), 205%. This molecule also gave an IC50 in assay [3] of 0.24 µg/mL (≈ 0.624 µM).
With `CCN(CC)CCNC(=O)c1ccc(O)c2nc3c(C=O)c(O)c(C)c(O)c3nc12` [Example 16, N-[2-(diethylamino)ethyl]-6-formyl-4,7,9-trihydroxy-8-methyl-1-phenazinecarboxamide], the MIC turned out to be 111 µg/mL (≈ 269 µM) with Mucor paraciticus; 37 µg/mL (≈ 89.7 µM) in [1]; 37 µg/mL (≈ 89.7 µM) with Staphylococcus aureus; 333 µg/mL (≈ 807 µM) with Pseudomonas aeruginosa; 12.3 µg/mL (≈ 29.8 µM) in the assay on Branhamella catarrhalis; 37 µg/mL (≈ 89.7 µM) in the assay with Salmonella typhimurium. For the same molecule, the MIC with Saccharomyces cerevisiae amounted to 111 µg/mL (≈ 269 µM); in the assay with Torulopsis albida it was 37 µg/mL (≈ 89.7 µM); in the assay on Bacillus megaterium, 37 µg/mL (≈ 89.7 µM); in assay [2], 37 µg/mL (≈ 89.7 µM); with Alcaligenes viscolactis it was 12.3 µg/mL (≈ 29.8 µM); in the assay with Rhodotorula aurantiaca, 37 µg/mL (≈ 89.7 µM). For the same molecule, the MIC in the assay with Streptococcus faecalis turned out to be 111 µg/mL (≈ 269 µM); with Micrococcus luteus, 12.3 µg/mL (≈ 29.8 µM); in the assay with Streptococcus pneumoniae, 37 µg/mL (≈ 89.7 µM); in the assay on Bacillus cereus, 12.3 µg/mL (≈ 29.8 µM); with Streptococcus pyogenes it was 37 µg/mL (≈ 89.7 µM); in the assay on Rhizopus japonicus, 111 µg/mL (≈ 269 µM). Besides, the “% T/C” value in the assay on P388 leukemia cell line (19 mg/kg/injection) is 136%; in the assay with P388 leukemia cell line (37.5 mg/kg/injection), 147%; in the assay on P388 leukemia cell line (75 mg/kg/injection), 166%; in the assay on P388 leukemia cell line (150 mg/kg/injection), 213%. For the same molecule, the IC50 in [3] came out at 0.33 µg/mL (≈ 0.8 µM).
On to `Cc1c(O)c(C=O)c2nc3c(O)ccc(C(=O)NCCCN(C)C)c3nc2c1O` [Example 18, N-[3-(dimethylamino)propyl]-6-formyl-4,7,9-trihydroxy-8-methyl-1-phenazinecarboxamide], for which the MIC in the assay with Mucor paraciticus was 37 µg/mL (≈ 92.9 µM); in assay [1] it was 37 µg/mL (≈ 92.9 µM); in the assay with Staphylococcus aureus, 37 µg/mL (≈ 92.9 µM); in the assay with Pseudomonas aeruginosa it was more than 1000 µg/mL; in the assay with Branhamella catarrhalis it was 12.3 µg/mL (≈ 30.9 µM); in the assay on Salmonella typhimurium it was 111 µg/mL (≈ 279 µM). The MIC with Saccharomyces cerevisiae came to 111 µg/mL (≈ 279 µM); in the assay with Torulopsis albida, 37 µg/mL (≈ 92.9 µM); in the assay with Bacillus megaterium it was 37 µg/mL (≈ 92.9 µM); in assay [2], 37 µg/mL (≈ 92.9 µM); in the assay on Alcaligenes viscolactis, 12.3 µg/mL (≈ 30.9 µM); with Rhodotorula aurantiaca it was 37 µg/mL (≈ 92.9 µM). For the same molecule, the MIC in the assay on Streptococcus faecalis is 37 µg/mL (≈ 92.9 µM); in the assay with Micrococcus luteus, 12.3 µg/mL (≈ 30.9 µM); in the assay on Streptococcus pneumoniae, 37 µg/mL (≈ 92.9 µM); in the assay with Bacillus cereus, 12.3 µg/mL (≈ 30.9 µM); in the assay on Streptococcus pyogenes, 37 µg/mL (≈ 92.9 µM); in the assay with Rhizopus japonicus, 37 µg/mL (≈ 92.9 µM). Further, the “% T/C” value in the assay with P388 leukemia cell line (25 mg/kg/injection) is reported as 106%; in the assay on P388 leukemia cell line (50 mg/kg/injection), 123%; in the assay with P388 leukemia cell line (100 mg/kg/injection) it was 132%. Besides, the IC50 in assay [3] turned out to be 0.24 µg/mL (≈ 0.602 µM).
